Structures can show the parent of a compound that is named as a salt. Values belong to the compound of their own block, whether it stands above or below them.
Key:
[1] = test system: Cyclophosphamide induced neutropenia; assay: Cyclophosphamide induced neutropenia, hematological parameters (Example 10); format: in vivo, Female Swiss Albino mice; details: for Anti-neutropenic activity (words): inference from table 8A
Procedure: (§1) • 1. To induce neutropenia by administration of cyclophosphamide. • 2.
(§2) Materials: Female Swiss Albino mice weighing between 25-27 g was procured from Global Bioresearch Solutions Pvt Ltd., Pune.
(§3) On day 0, blood was withdrawn from all animals for basal hematological parameters. All the groups of animals except placebo group were injected with 150 mg/kg of cyclophosphamide through intraperitoneal route (i.p.), while group 1 was injected with water for injection, i.p. On Day 3, blood was withdrawn from all animals for Total and differential count (neutrophils, lymphocytes, and monocytes). The animals of group 2 to 7 were dosed with one additional dose of 100 mg/kg cyclophosphamide on Day 4. […] The cyclophosphamide control group was injected with water for injection from day 5 to day 9. On day 10, blood was withdrawn from all animals for total and differential count (neutrophils, lymphocytes, and monocytes), platelets, liver parameters AST (aspartate aminotransferase), ALT (alanine aminotransferase), and renal parameters—serum creatinine, blood urea nitrogen and uric acid.
(§4) • Pure Picroside 1—1 tablet was dissolved in 0.1 ml of sterile water for injection and 0.1 ml was injected as subcutaneous injection. • The degraded Picroside 1 without salt (cinnamic acid of the present disclosure)—1 tablet was dissolved in 0.1 ml of sterile water for injection and 0.1 ml was injected as subcutaneous injection. • The Cinnamic acid low dose (0.6 mg/tablet) treated tablet was dissolved in 0.1 ml of sterile water for injection and 0.1 ml was injected as subcutaneous injection. • The Cinnamic acid high dose treated (6 mg/tablet) tablet was dissolved in 0.1 ml of sterile water for injection and 0.1 ml was injected as subcutaneous injection.

neutropenia = assay: Efficacy dose for anti-neutropenic activity and human equivalent dose; format: in vivo, mice
Procedure: The animal efficacy dose of the cinnamic acid prepared in accordance with the present disclosure was 0.6 mg/mice or 0.6 mg/25 g or 6 mg/250 g or 24 mg/kg mice.
The human dose of the cinnamic acid prepared in accordance with the present disclosure, AED (animal equivalent dose) was divided by 12.3=24/12.3=1.95 mg/kg HED (human equivalent dose).
The animal efficacy dose of the cinnamic acid prepared in accordance with the present disclosure was 6 mg/25 g or 60 mg/250 g mice or 240 mg cinnamic acid/kg.
The human dose of the cinnamic acid prepared in accordance with the present disclosure, AED (animal equivalent dose) was divided by 12.3=240/12.3=19.51 mg/kg HED (human equivalent dose).

[2] = test system: Cyclophosphamide induced hepatotoxicity and renal changes; assay: Hepatic and renal parameters in cyclophosphamide induced neutropenia (Example 10); format: in vivo, Female Swiss Albino mice; details: for BUN (blood urea nitrogen) / SGOT Serum glutamic oxaloacetic transaminase / SGPT (Serum glutamic pyruvic transaminase) / Serum Creatinine / Uric acid: day 10
Procedure: as §1, §2, §3, §4

[3] = Solubility/stability of injectable cinnamic acid 6 mg/mL in diluents (HPLC, ICH); format: physicochemical; details: zero day
Procedure: 6 mg of cinnamic acid was dissolved in 300 μl of 100% ethanol, sonicated for 5 min and then diluted to 1 ml with 5% PEG 400/5% DMSO/5% ethyl lactate to obtain a clear solution of cinnamic acid in the injectable form (injectable formulation). The formulation was evaluated for stability as per ICH guidelines.

[4] = Day 0, basal, G-CSF 2 μg, Picroside tablets groups
[5] = Day 3, after cyclophosphamide, before treatment, G-CSF 2 μg, Picroside tablets groups
[6] = Day 10, treated day 5 for 5 days, G-CSF 2 μg s.c., others 1 tablet per animal per day
[7] = G-CSF 2 μg s.c., others 1 tablet per animal per day for 5 days
[8] = Day 0, basal, 0.6 mg/tablet low dose
[9] = Day 0, basal, 6 mg/tablet high dose
[10] = Day 3, after cyclophosphamide, before treatment, 0.6 mg/tablet low dose
[11] = Day 3, after cyclophosphamide, before treatment, 6 mg/tablet high dose
[12] = Day 10, treated day 5 for 5 days, 0.6 mg/tablet low dose, 1 tablet per animal per day
[13] = Day 10, treated day 5 for 5 days, 6 mg/tablet high dose, 1 tablet per animal per day
[14] = vs CP control, day 10, cinnamic acid at both 0.6 mg/tablet low dose and 6 mg/tablet high dose
[15] = 0.6 mg/tablet low dose, 1 tablet per animal per day for 5 days
[16] = 6 mg/tablet high dose, 1 tablet per animal per day for 5 days
[17] = vs CP control, cinnamic acid at both 0.6 mg/tablet low dose and 6 mg/tablet high dose

Compound: O=C(O)C=Cc1ccccc1 [The degraded Picroside 1 without salt, cinnamic acid]
- % Lymphocytes [1, 4]: 46.5%
- % Monocytes [1, 4]: 6.50%
- % Neutrophils [1, 4]: 38.83%
- No of Platelets [1, 4]: 759400 per cu · mm of blood
- Total WBC Count [1, 4]: 7644 per cu · mm of blood
- % Lymphocytes [1, 5]: 83.5%
- % Monocytes [1, 5]: 1.82%
- % Neutrophils [1, 5]: 6.667%
- No of Platelets [1, 5]: 624000 per cu · mm of blood
- Total WBC Count [1, 5]: 2253 per cu · mm of blood
- % Lymphocytes [1, 6]: 58.83%
- % Monocytes [1, 6]: 5.50%
- % Neutrophils [1, 6]: 25.17%
- No of Platelets [1, 6]: 631900 per cu · mm of blood
- Total WBC Count [1, 6]: 3705 per cu · mm of blood
- Anti-neutropenic activity (words) ([1]; listed as the degraded Picroside 1 without salt): shows better anti-neutropenic activity
- animal efficacy dose for anti-neutropenic activity (neutropenia; from 0.6 mg/mice (0.6 mg/25 g)): 24 mg/kg
- animal efficacy dose (neutropenia; from 6 mg/25 g mice): 240 mg cinnamic acid/kg
- BUN (blood urea nitrogen) [2, 7]: 9.467 mmol/L
- SGOT Serum glutamic oxaloacetic transaminase [2, 7]: 27.5 IU/L
- SGPT (Serum glutamic pyruvic transaminase) [2, 7]: 30.33 IU/L
- Serum Creatinine [2, 7]: 41 µM
- Uric acid [2, 7]: 21.50 mg/L
- Hepatic and renal parameters in neutropenic animal model ([2]; inference from table 8B, as compared to GCSF): improved hepatic and renal parameters

- HPLC area ([3]; 30% Ethanol with 3.5% PEG400): 3128043
- HPLC area ([3]; 30% Ethanol with 5% DMSO): 3276296
- HPLC area ([3]; 30% Ethanol with 5% Ethyl lactate): 3175284
- HPLC area ([3]; 100% Methanol): 3379040
Compound: O=C(O)C=Cc1ccccc1 [The commercial synthetic Cinnamic acid, 3-Phenyl-2-propenoic acid]
- % Lymphocytes [1, 8]: 45.17%
- % Monocytes [1, 8]: 6.66%
- % Neutrophils [1, 8]: 40.33%
- No of Platelets [1, 8]: 736600 per cu · mm of blood
- Total WBC Count [1, 8]: 7465 per cu · mm of blood
- % Lymphocytes [1, 9]: 46.83%
- % Monocytes [1, 9]: 6.82%
- % Neutrophils [1, 9]: 40.17%
- No of Platelets [1, 9]: 772500 per cu · mm of blood
- Total WBC Count [1, 9]: 7237 per cu · mm of blood
- % Lymphocytes [1, 10]: 83.67%
- % Monocytes [1, 10]: 1.82%
- % Neutrophils [1, 10]: 6.50%
- No of Platelets [1, 10]: 630500 per cu · mm of blood
- Total WBC Count [1, 10]: 2289 per cu · mm of blood
- % Lymphocytes [1, 11]: 84%
- % Monocytes [1, 11]: 1.66%
- % Neutrophils [1, 11]: 6.333%
- No of Platelets [1, 11]: 637000 per cu · mm of blood
- Total WBC Count [1, 11]: 2306 per cu · mm of blood
- % Lymphocytes [1, 12]: 61%
- % Monocytes [1, 12]: 5.82%
- % Neutrophils [1, 12]: 27.67%
- No of Platelets [1, 12]: 641400 per cu · mm of blood
- Total WBC Count [1, 12]: 4460 per cu · mm of blood
- % Lymphocytes [1, 13]: 53%
- % Monocytes [1, 13]: 5.82%
- % Neutrophils [1, 13]: 33.17%
- No of Platelets [1, 13]: 660300 per cu · mm of blood
- Total WBC Count [1, 13]: 5389 per cu · mm of blood
- Anti-neutropenic activity (words) ([1]; listed as The commercial synthetic cinnamic acid): active to address neutropenia
- Effect on % lymphocytes [1, 14]: significant (p<0.001) decrease in % lymphocytes
- Effect on % monocytes [1, 14]: significantly (p<0.001) reversed
- Effect on % neutrophil [1, 14]: significantly (p<0.001) alleviated the cyclophosphamide-induced neutropenia
- Effect on platelet count [1, 14]: did not cause significant change in the platelet count
- Effect on total WBC count [1, 14]: significantly (p<0.001) reversed the cyclophosphamide induced decrease in WBC count
- BUN (blood urea nitrogen) [2, 15]: 9.533 mmol/L
- SGOT Serum glutamic oxaloacetic transaminase [2, 15]: 33.67 IU/L
- SGPT (Serum glutamic pyruvic transaminase) [2, 15]: 36.5 IU/L
- Serum Creatinine [2, 15]: 38.5 µM
- Uric acid [2, 15]: 16.82 mg/L
- BUN (blood urea nitrogen) [2, 16]: 9.383 mmol/L
- SGOT Serum glutamic oxaloacetic transaminase [2, 16]: 29.33 IU/L
- SGPT (Serum glutamic pyruvic transaminase) [2, 16]: 32.17 IU/L
- Serum Creatinine [2, 16]: 37.5 µM
- Uric acid [2, 16]: 16.66 mg/L
- Effect on BUN level [2, 17]: significant (p<0.001) decrease in BUN level
- Effect on SGOT level [2, 17]: significant (p<0.001) decrease in SGOT
- Effect on SGPT level [2, 17]: significant reversal (p<0.001)
- Effect on serum creatinine level [2, 17]: significant (p<0.001) decrease in creatinine level
- Effect on uric acid level [2, 17]: significant reversal (p<0.001) of uric acid level
